# Results taken from patent publication US4902712A, “Fluoroalkane derivatives” (Imperial Chemical Industries plc, priority 1985, dated 1990).
# Assays:
# TXA2 [1] = experiment: TXA2 antagonist properties (general statement, standard tests); conditions: in words
# Excerpt: (§1) As stated earlier, the compound of formula I is an antagonist of one or more of the actions of TXA2, for example certain of its actions on blood platelets, the vasculature and/or the lung.
# [2] = tested on: U46619 induced hypertension; experiment: Test (d): U46619 induced hypertension in anaesthetised rats; type: in vivo, rat (Alderley Park strain); conditions: 1 hour after an oral dose of 0.05 mg/kg
# Protocol: (d) Male rats (Alderley Park strain) are anaesthetised with sodium pentobarbital and blood pressure is monitored at the carotid artery. The TXA2 mimetic agent U46619 is administered intravenously at 5 μg/kg via the jugular vein to produce a 20-30 mm Hg (2640-3970 pascal) increase in systolic blood pressure. The procedure is repeated twice to establish reproducibility of the effect. A test compound is then administered either intravenously (via the jugular vein) or orally (via a cannula) directly into the stomach and the animal is challenged with U46619, five minutes after dosing with test compound and then successively every ten minutes until the hypertensive effect of U46619 is no longer blocked.
# TXA2 [3] = experiment: Test (a): rabbit aortal strip model (Piper and Vane); type: cell-based; conditions: agonist TXA2 or U46619
# Protocol: as §1
# (a) The rabbit aortal strip model devised by Piper and Vane (Nature, 1969, 223, 29-35) using as agonist a freshly prepared sample of TXA2, generated by addition of arachidonic acid (25 μg) to citrated, platelet rich rabbit plasma (250 μl) and allowing the mixture to aggregate fully over 90 seconds before use; alternatively the TXA2 mimetic agent known as U46619 (described by R. L. Jones et alia in "Chemistry, Biochemistry and Pharmacological Activity of Prostanoids" edited by S. M. Roberts and F. Scheinmann, at page 211; Pergamon Press, 1979) may be used as the agonist;
# [4] = biological target: T1, U46619 stimulated platelet aggregation (Homo sapiens, UniProt P21731); experiment: Test (b): blood platelet aggregation test (Born), human citrated platelet-rich plasma; type: cell-based; conditions: averaged over several concentrations
# T1 construct: aggregating human, citrated, platelet-rich plasma; endogenous in cells; host or cells: human platelets in citrated platelet-rich plasma
# T1 sequence (P21731 1-343): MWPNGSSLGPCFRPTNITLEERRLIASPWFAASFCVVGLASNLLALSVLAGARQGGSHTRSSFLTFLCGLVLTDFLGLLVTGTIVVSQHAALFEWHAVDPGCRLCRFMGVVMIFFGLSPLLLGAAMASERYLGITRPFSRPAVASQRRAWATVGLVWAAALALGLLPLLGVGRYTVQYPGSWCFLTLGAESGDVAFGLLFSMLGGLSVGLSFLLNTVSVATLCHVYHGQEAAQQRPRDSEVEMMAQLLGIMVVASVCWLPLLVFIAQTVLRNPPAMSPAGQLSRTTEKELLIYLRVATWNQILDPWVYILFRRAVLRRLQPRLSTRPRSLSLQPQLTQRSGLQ
# Excerpt: (b) a blood platelet aggregation test based on that described by Born (Nature, 1962, 194, 927-929) and involving:
# (i) aggregating human, citrated, platelet-rich plasma by addition of the TXA2 mimetic agent U46619 so that a dose-response curve is generated;
# (ii) generating a dose-response curve for U46619 stimulated platelet aggregation in the presence of increasing amounts of test compound (generally in the range 10^-5 M to 10^-10 M); and
# (iii) calculating a KB value indicating potency of TXA2 antagonism for the test compound, averaged over several concentrations, from the calculated 50% response value for U46619 aggregation in the presence and absence of test compound; and […]
# [5] = tested on: U46619 induced bronchoconstriction; experiment: Test (c): bronchoconstriction test, Konzett-Rossler anaesthetised guinea-pig model; type: in vivo; conditions: 2 hours after oral dosing at 0.005 mg/kg; ratio of U46619 concentration required to cause 50% bronchoconstriction in presence and absence of test compound
# Excerpt: (c) a bronchoconstriction test involving measuring the inhibition by a test compound of the bronchoconstriction induced in the Konzett-Rossler, anaesthetised guinea-pig model (as modified by Collier and James, Brit. J. Pharmacol., 1967, 30, 283-307) by intravenous administration of the TXA2 mimetic agent, U46619 and involving:
# (i) obtaining a cumulative dose-response curve to U46619 induced bronchoconstriction by intravenous administration of constant volumes of increasing concentrations of U46619 (0.2-4 ug/kg) in physiological saline solution and expressing bronchoconstriction as the maximum of that theoretically obtainable with no air flow to the test animal;
# (ii) generating a cumulative dose-response curve to U46619 induced bronchoconstriction at 30 minute intervals for 3 hours after oral dosing of test compound; and
# (iii) calculating a dose-ratio for the test compound (that is the ratio of concentration of U46619 required to cause 50% bronchoconstriction in the presence and absence of test compound) indicating the potency of TXA2 antagonism.
Compound,TXA2 antagonist properties (TXA2 [1]),inhibition of U46619 induced hypertension [2] [%],pA2 (TXA2 [3]),Kb [4] [nM],dose ratio [5]
"COc1ccccc1[C@H]1O[C@@H](C(F)(F)F)OC[C@H]1C/C=C\CCC(=O)O (relative stereo) [4(Z)-6-([2,4,5-cis]-4-o-methoxyphenyl-2-trifluoromethyl-1,3-dioxan-5-yl)hexenoic acid]",also possess TXA2 antagonist properties,,,,
"O=C(O)CCC/C=C\C[C@@H]1CO[C@H](C(F)(F)F)O[C@@H]1c1ccccc1 (relative stereo) [5(Z)-7-([2,4,5-cis]-4-phenyl-2-trifluoromethyl-1,3-dioxan-5-yl)heptenoic acid, reference compound]",significantly lower TXA2 antagonist properties,,,,
"O=C(O)CC/C=C\C[C@@H]1CO[C@H](C(F)(F)F)O[C@@H]1c1ccccc1O (relative stereo) [compound of formula I, 4(Z)-6-([2,4,5-cis]-4-o-hydroxyphenyl-2-trifluoromethyl-1,3-dioxan-5-yl)hexenoic acid]",unexpectedly superior TXA2 antagonist properties,> 60,7.58±0.05,13.2,> 40
